Assay results published in ChEMBL document CHEMBL5370652, “Ligand Sulfur Oxidation State Progressively Alters Galectin-3-Ligand Complex Conformations To Induce Affinity-Influencing Hydrogen Bonds” (J Med Chem, 2023).

Columns and labels:
Galectin-3 [1] = target: T1, Galectin-3 (Homo sapiens, UniProt P17931); assay: Binding affinity to wild type Galectin-3 (unknown origin) assessed as dissociation constant by fluorescence polarization assay
Galectin-3 [2] = target: T1, Galectin-3; assay: Binding affinity to Galectin-3 (unknown origin) assessed as dissociation constant by fluorescence polarization assay
Galectin-3 [3] = target: T1, Galectin-3
Description: Binding affinity to Galectin-3 (unknown origin) assessed as gibbs free energy change by isothermal titration calorimetry analysis

Galectin-3 [4] = target: T1, Galectin-3; remark: listed apart in the source
Description: Binding affinity to Galectin-3 (unknown origin) assessed as change in enthalpy by isothermal titration calorimetry analysis

Galectin-3 [5] = target: T1, Galectin-3; remark: listed apart in the source
Description: Binding affinity to Galectin-3 (unknown origin) assessed as change in entropy by isothermal titration calorimetry analysis

T1 sequence (P17931 whole entry): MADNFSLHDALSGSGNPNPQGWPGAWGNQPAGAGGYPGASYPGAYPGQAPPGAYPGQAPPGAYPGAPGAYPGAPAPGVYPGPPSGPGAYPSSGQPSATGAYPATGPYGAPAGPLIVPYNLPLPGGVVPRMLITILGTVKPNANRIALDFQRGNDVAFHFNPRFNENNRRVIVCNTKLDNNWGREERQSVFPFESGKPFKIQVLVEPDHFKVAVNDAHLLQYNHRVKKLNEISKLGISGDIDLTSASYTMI

Compound: Cc1ccc(S[C@@H]2O[C@H](CO)[C@H](O)[C@H](n3cc(S(=O)(=O)c4ccccc4)nn3)[C@H]2O)cc1
- Kd (Galectin-3 [1]): 79 µM

Compound: [O-][S+](c1ccccc1)c1cn([C@H]2[C@@H](O)[C@@H](CO)O[C@@H](S[C@@H]3O[C@H](CO)[C@@H](O)[C@H](O)[C@H]3O)[C@@H]2O)nn1 (stereo not given in full)
- Kd (Galectin-3 [2]): 55.5 µM
- deltaG (Galectin-3 [3]): -5.55 kcal/mol
- deltaH (Galectin-3 [4]): -6.17 kcal/mol
- -TdeltaS (Galectin-3 [5]): 0.62 kcal/mol
